“And” between values parts separate entries of the source, which are not always exact repeats. Identical values can stand only once. “Also recorded” adds a separate entry of the source. Counter-ions that a name gives are not always drawn. Marks after values point to notes of the source that are not given here.
Assays:
[1] = test system: female Sprague-Dawley rats; test: 14-day repeated dose neurotoxicity study, intranasal esketamine HCl (clinical observations, brain histopathology, toxicokinetics); details: for Abnormal respiration, incidence / Ataxia, incidence / Chromodacryorrhea, incidence / Decreased general activity, incidence / Decubitus, incidence / Increased general activity, incidence / Salivation (out of normal), incidence / audible respiration, incidence / bradypnoea, incidence: 14 days
Text: (§1) For these studies, female specific pathogen free (SPF) Sprague-Dawley rats were used, which were approximately 12 to 14 weeks at start of dosing and weighed between 227 to 293 grams in the single dose study and between 235 to 296 grams in the 14-day repeated dose study. The rats were supplied by Charles River (Sulzfeld, Germany). They were group housed in polysulphone cages with floor area of 3000 cm^2 and Corn Cob (size 12, Eurocob, France) was provided as bedding material. Environmental enrichment existed of a rodent retreat (Bio-Serv, US) and aspen wood blocks (Datesand, UK). […] The animals were fed ad libitum with irradiated R/M-H pelleted maintenance diet from Ssniff (Germany). Hydrogel™ (supplied by Bio-services, Uden, the Netherlands) was provided to the MK-801 dosed rats in the single dose study.
Esketamine HCl was administered into each nostril of female rats at a volume of 50 μl per nostril either once, twice or thrice daily by intranasal instillation for 14 consecutive days at doses of 0 (vehicle), 18, 36 or 54 mg/day. At each instillation, the second nostril was dosed immediately after the first nostril. The interval between subsequent instillations into both nostrils was 5 minutes when dosed 2 or 3 times per day.
The vehicle control group received 3 subsequent intranasal instillations of the vehicle into both nostrils (50 μL per nostril) with 5-minute intervals for 14 consecutive days.
The positive control group received a single subcutaneous injection of (+)MK-801 at 48 hours prior to the necropsy of the vehicle control and esketamine HCl-treated animals.
Each group of main study animals consisted of 12 female rats. Four satellite animals were added to the esketamine HCl-dosed groups of main study animals for TK purposes. The plasma exposure to esketamine was measured in these animals on the first and the last day of dosing at various time points up to and including 24 hours after the first instillation.
Due to logistic constraints associated with the whole body perfusion procedure of the animals at necropsy, a staggered start was applied to the study. Consequently, all 5 groups of main study animals were divided into three subgroups of 4 animals each. For each of these subgroups treatment started on a different day. The perfusion procedure is the is the same as described for the single dose study.
All vehicle- and esketamine HCl-treated animals were sacrificed at 48 hours after the last instillation. […] The brain tissue of the vehicle control-, positive control- and esketamine HCl-treated rats were processed at the same time and handled in the same way in batches of 4 animals per group.
(§2) Furthermore, clinical observations were recorded for the esketamine HCl-dosed rats on the day of dosing at 0 till 5 minutes, 15 and 30 minutes, and at 1, 2, 4, 6 hours post-dose, at the end of the working day and at 24 hours after the last instillation in the single dose study and on the first day of dosing, after one week and towards the end of the dosing period in the repeated dose study. Body weight and body weight gain were measured daily. Food consumption was measured weekly in the repeated dose study.
On the day of terminal kill, a complete physical examination was performed on the rats in fasted condition and body weight was recorded. The surviving animals were anaesthetized by inhalation of an isoflurane (IsoFlo® Zoetis, Belgium)/oxygen mixture and killed by exsanguination via the carotid artery. […] All terminally killed rats or those killed pre-terminally were perfused with 4% paraformaldehyde in the single dose study and with glutaraldehyde 3% in potassium phosphate buffer 0.09 M with 1.4% sucrose in the repeated dose study.
Brain tissue was sampled and processed routinely. The trimmed and embedded tissue was sectioned and stained with hematoxylin-eosin (HE).

[2] = test system: female Sprague-Dawley rats; test: Single dose neurotoxicity study, intranasal esketamine HCl (clinical observations, brain histopathology, toxicokinetics)
Text: as §1
Esketamine HCl was instilled intranasally at doses of 0 (vehicle), 36, 54 or 72 mg (expressed as esketamine base) to female rats on a single day. The dose levels were obtained by 2, 3 or 4 subsequent intranasal instillations, respectively, into both nostrils at a volume of 50 μL per nostril. At each instillation, the second nostril was dosed immediately after the first nostril. The interval between subsequent instillations into both nostrils was 5 minutes.
The vehicle control group received 4 subsequent intranasal instillations of the vehicle into both nostrils (50 μL per nostril) with 5-minute intervals.
The injection volume was 5 mL/kg.
The vehicle- and the 36 and 54 mg-dosed groups consisted of 24 animals per group, while the 72 mg-dosed and positive control groups involved 30 animals per group. Four satellite animals were added to the esketamine HCl-dosed groups of main study animals for toxicokinetic (TK) purposes. In these animals the plasma exposure to esketamine was measured on the day of dosing at various time points up to and including 24 hours after the first instillation.
Prior to the perfusion, rats were anesthetized with isoflurane. After injection of 0.1 ml heparin, the blood of the rat was flushed out with a physiological saline solution by intraarterial insertion of a needle in the abdominal aorta. Thereafter the rat was perfused with glutaraldehyde 3% in potassium phosphate 0.09M and 1.4% sucrose. Due to logistic constraints at maximum 30 animals could undergo the whole-body perfusion procedure on a given day. Therefore, a staggered start of treatment was applied to all 5 groups of main study animals. Consequently, subgroups of 4 main study animals of the vehicle- and 36 and 54 mg-dosed groups, and 5 main study animals of the 72 mg-dosed and positive control groups, were dosed on 6 consecutive days, respectively.
The vehicle control, positive control, and esketamine HCl-dosed animals were sacrificed at either 48 hours (i.e., the first 12 or 15 rats per group) or 96 hours after the dose administration time (i.e., the last 12 or 15 rats per group). The brain tissue of the vehicle control-, positive control- and esketamine HCl-treated rats were processed at the same time and handled in the same way in batches of 4 or 5 animals per group.
as §2
On the day of terminal kill, a complete physical examination was performed on the rats in fasted condition and body weight was recorded. The surviving animals were anaesthetized by inhalation of an isoflurane (IsoFlo® Zoetis, Belgium)/oxygen mixture and killed by exsanguination via the carotid artery.

[3] = 14-day neurotoxicity study, 54 mg/day
[4] = single dose neurotoxicity study, 72 mg

CN[C@]1(c2ccccc2Cl)CCCCC1=O [esketamine HCl, (S)-2-(2-chlorophenyl)-2-(methylamino)cyclohexanone hydrochloride]
Abnormal respiration, incidence ([1]; 18 mg/day intranasal): 2/12 | Ataxia, incidence ([1]; 18 mg/day intranasal): 12/12*** | Chromodacryorrhea, incidence ([1]; 18 mg/day intranasal): 0/12 | Decreased general activity, incidence ([1]; 18 mg/day intranasal): 5/12 | Decubitus, incidence ([1]; 18 mg/day intranasal): 0/12 | Increased general activity, incidence ([1]; 18 mg/day intranasal): 12/12*** | Salivation (out of normal), incidence ([1]; 18 mg/day intranasal): 12/12*** | audible respiration, incidence ([1]; 18 mg/day intranasal): 2/12 | bradypnoea, incidence ([1]; 18 mg/day intranasal): 0/12 | Abnormal respiration, incidence ([1]; 36 mg/day intranasal): 11/12*** | Ataxia, incidence ([1]; 36 mg/day intranasal): 12/12*** | Chromodacryorrhea, incidence ([1]; 36 mg/day intranasal): 0/12 | Decreased general activity, incidence ([1]; 36 mg/day intranasal): 12/12*** | Decubitus, incidence ([1]; 36 mg/day intranasal): 2/12 | Increased general activity, incidence ([1]; 36 mg/day intranasal): 12/12*** | Salivation (out of normal), incidence ([1]; 36 mg/day intranasal): 12/12*** | audible respiration, incidence ([1]; 36 mg/day intranasal): 6/12** | bradypnoea, incidence ([1]; 36 mg/day intranasal): 11/12*** | Abnormal respiration, incidence ([1]; 54 mg/day intranasal): 12/12*** | Ataxia, incidence ([1]; 54 mg/day intranasal): 12/12*** | Chromodacryorrhea, incidence ([1]; 54 mg/day intranasal): 0/12 | Decreased general activity, incidence ([1]; 54 mg/day intranasal): 12/12*** | Decubitus, incidence ([1]; 54 mg/day intranasal): 8/12*** | Increased general activity, incidence ([1]; 54 mg/day intranasal): 12/12*** | Salivation (out of normal), incidence ([1]; 54 mg/day intranasal): 12/12*** | audible respiration, incidence ([1]; 54 mg/day intranasal): 6/12** | bradypnoea, incidence ([1]; 54 mg/day intranasal): 12/12*** | Maximum tolerated dose (MTD) upon repeated intranasal administration ([1]; 14-day dose-range finding study (internal study)): 54 mg/day | Brain histopathology (neuronal necrosis / Olney lesions in PCG/RSC) ([1]; 14-day study, esketamine HCl intranasal up to 54 mg/day, (+)MK-801 maleate single 1 mg/kg sc, 48 h after last dose, hydrochloride, 1 mg/kg): absence of neuronal necrosis; also recorded: no histopathological lesions were noted; also recorded: did not; also recorded: No histopathological lesions were found | Mortality ([1]; up to 54 mg/day for 14 days): No test article related mortality occurred | Duration of severely decreased activity with decubitus, bradypnea, ptosis, catalepsy (anesthesia) after last instillation ([2]; 36 mg): 15 to 30 min | Duration of ataxia (with increased activity) after recovery from decreased activity ([2]; 54 mg, hydrochloride): 1.5 to 3 h and 1 to 3 h | Duration of ataxia (with increased activity) after recovery from decreased activity ([2]; 72 mg): up to 3 hours or longer | Abnormal respiration, incidence ([2]; single dose 36 mg intranasal): 22/24*** | Ataxia, incidence ([2]; single dose 36 mg intranasal): 24/24*** | Catalepsy, incidence ([2]; single dose 36 mg intranasal): 20/24*** | Chromodacryorrhea, incidence ([2]; single dose 36 mg intranasal): 0/24 | Decreased general activity, incidence ([2]; single dose 36 mg intranasal): 23/24*** | Decubitus, incidence ([2]; single dose 36 mg intranasal): 23/24*** | Increased general activity, incidence ([2]; single dose 36 mg intranasal): 24/24*** | Narrowed palpebral fissure, incidence ([2]; single dose 36 mg intranasal): 7/24** | Piloerection, incidence ([2]; single dose 36 mg intranasal): 0/24 | Salivation (out of normal), incidence ([2]; single dose 36 mg intranasal): 23/24*** | audible respiration, incidence ([2]; single dose 36 mg intranasal): 10/24*** | bradypnoea, incidence ([2]; single dose 36 mg intranasal): 22/24*** | Abnormal respiration, incidence ([2]; single dose 54 mg intranasal): 22/24*** | Ataxia, incidence ([2]; single dose 54 mg intranasal): 24/24*** | Catalepsy, incidence ([2]; single dose 54 mg intranasal): 23/24*** | Chromodacryorrhea, incidence ([2]; single dose 54 mg intranasal): 0/24 | Decreased general activity, incidence ([2]; single dose 54 mg intranasal): 23/24*** | Decubitus, incidence ([2]; single dose 54 mg intranasal): 23/24*** | Increased general activity, incidence ([2]; single dose 54 mg intranasal): 24/24*** | Narrowed palpebral fissure, incidence ([2]; single dose 54 mg intranasal): 10/24*** | Piloerection, incidence ([2]; single dose 54 mg intranasal): 0/24 | Salivation (out of normal), incidence ([2]; single dose 54 mg intranasal): 24/24*** | audible respiration, incidence ([2]; single dose 54 mg intranasal): 3/24 | bradypnoea, incidence ([2]; single dose 54 mg intranasal): 21/24*** | Abnormal respiration, incidence ([2]; single dose 72 mg intranasal): 30/30*** | Catalepsy, incidence ([2]; single dose 72 mg intranasal): 30/30*** | Chromodacryorrhea, incidence ([2]; single dose 72 mg intranasal): 0/30 | Decreased general activity, incidence ([2]; single dose 72 mg intranasal): 30/30*** | Decubitus, incidence ([2]; single dose 72 mg intranasal): 30/30*** | Increased general activity, incidence ([2]; single dose 72 mg intranasal): 29/30*** | Narrowed palpebral fissure, incidence ([2]; single dose 72 mg intranasal): 22/30*** | Piloerection, incidence ([2]; single dose 72 mg intranasal): 0/30 | Salivation (out of normal), incidence ([2]; single dose 72 mg intranasal): 29/30*** | audible respiration, incidence ([2]; single dose 72 mg intranasal): 2/30 | bradypnoea, incidence ([2]; single dose 72 mg intranasal): 30/30*** | Brain histopathology (neuronal necrosis / Olney lesions in PCG/RSC) ([2]; single dose study, esketamine HCl intranasal up to 72 mg, (+)MK-801 maleate 1 mg/kg sc, 48 and 96 h post-dose, hydrochloride): no morphological evidence of neuronal degeneration; also recorded: histopathological lesions were absent; also recorded: No signs of neuronal necrosis were found; also recorded: no neuropathological lesions were observed | Mortality ([2]; single intranasal dose 72 mg, within 30 minutes after 4 instillations): two main study animals and two satellite TK animals died | Mortality ([2]; single intranasal dose up to 54 mg): No test article related mortality

CN[C@]1(c2ccccc2Cl)CCCCC1=O [esketamine, (S)-2-(2-chlorophenyl)-2-(methylamino)cyclohexanone]
AUC-based safety margin compared with the maximum 84 mg clinical dose [1, 3]: ~11 fold | Cmax-based safety margin compared with the maximum 84 mg clinical dose [1, 3]: approximately 17 fold | AUC-based safety margin compared with the maximum 84 mg clinical dose [2, 4]: ~86 fold | Cmax-based safety margin compared with the maximum 84 mg clinical dose [2, 4]: approximately 60 fold

— patent publication US20230121313A1 (priority 2019, published 2023)
